Assay results published in US20170067014A1, “METHOD FOR GENERATING CELL CONDENSATE FOR SELF-ORGANIZATION” (PUBLIC UNIVERSITY CORPORATION YOKOHAMA CITY UNIVERSITY, priority 2014, published 2017).

System: condensate formation in cocultures of iPSC-hepatic endoderm cells, HUVECs and MSCs
Test: Inhibitory experiment against cell condensate formation using chemical substances
Type: cell-based, human
Settings: addition to the cocultures
Text: Hepatic endoderm cells derived from human induced pluripotent stem cells (iPSCs), umbilical cord-derived endothelial cells (HUVECs), and mesenchymal stem cells (MSCs) were labeled with distinctive fluorescent markers and cocultured on a solidified matrix gel which was already described. […] To elucidate dynamics of such condensate formation in more detail, the present inventors examined the temporal development of the position of the edge of the cell condensate (square root of cell area) and circularity by image analysis (FIG. 1b).
On each well of a 24-well plate on which PA gel planar substrate was placed or to which Matrigel coating [Matrigel (BD) either in stock solution or as a mixture with medium at 1:1 was poured at 300 μl/well and left to stand in a 37° C., 5% CO2 incubator for 10 min until it solidified] was applied, 2×10^6 cells or more of multiple types in any combination (tissues isolated from embryo or adult, or KO-HepG2, HUVEC, etc.) as mixed with 2×10^5 MSCs were seeded. In order to form small-sized cell condensates, 4×10^3 cells or more of multiple types in any combination (tissues isolated from embryo or adult, or KO-HepG2, HUVEC) were mixed with 5×10^3 or more MSCs and seeded. In either case, the cells were subsequently cultured in a 37° C. incubator for a day. After seeding, chronological observation of cell coculture was performed with a stereomicroscope or a confocal microscope.

Row | SMILES | effect on condensate formation
1 | c1cc(CN2CCCNCCNCCCNCC2)ccc1CN1CCCNCCNCCCNCC1 [AMD3100] | could not hinder
2 | C[C@@H](N)[C@H]1CC[C@H](C(=O)Nc2ccncc2)CC1 [Sample Y-27632] | partially delayed
3 | Cc1ccc2c(c1)C(=O)C1(O)CCN(c3ccccc3)C1=N2 (stereo not drawn) [blebbistatin] | completely antagonized
